These results are taken from patent US12662479B2 (Foghorn Therapeutics Inc., priority 2020, dated 2026).

The target of experiment [1] is T1, HiBit-BRM fusion protein (Homo sapiens, UniProt P51531).
T1 construct: expressed in transfected cells
Nature of the experiment: HiBiT-BRM cell-based degradation assay (Nano-Glo HiBiT Lytic Detection, 24 h). Particulars: HeLa cells expressing HiBiT-BRM; for DC50: read-out: BRM HiBit Degradation IC50; for BRM HiBit Degradation Maximum measured: top dose 30 μM. In outline: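 Percent BRM loss was derived from HiBiT luminescence relative to DMSO-treated cells and cells given 2 μM of a known BRM/BRG1 degrader. Treatment lasted 24 h in HiBiT-BRM HeLa cells, with a top final concentration of 30 μM.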

Experiment [2] concerns the target T2, HiBit-BRG1 fusion protein (Homo sapiens, UniProt P51532).
T2 construct: expressed in transfected cells
Nature of the experiment: HiBiT-BRG1 cell-based degradation assay (Nano-Glo HiBiT Lytic Detection, 24 h). Particulars: HeLa cells expressing HiBit-BRG1 and LgBit; for DC50: read-out: BRG1 HiBit Degradation IC50; for Dmax: HeLa, top dose 30 μM, read-out: BRG1 HiBit Degradation Maximum measured. Summed up:
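Degradation is scaled from DMSO-treated cells (0%) to cells given 2 μM of a known BRM/BRG1 degrader (100%). HeLa cells stably carrying HiBiT-BRG1 plus LgBiT (5000/well) were lysed with Nano-Glo HiBiT detection reagent, shaken 10 min at RT, and luminescence read.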
On the technique in general: HiBiT is a short tag that completes a luciferase, so light tracks the accessible tagged protein.

T2 sequence (P51532 whole entry, the tested form may be a part): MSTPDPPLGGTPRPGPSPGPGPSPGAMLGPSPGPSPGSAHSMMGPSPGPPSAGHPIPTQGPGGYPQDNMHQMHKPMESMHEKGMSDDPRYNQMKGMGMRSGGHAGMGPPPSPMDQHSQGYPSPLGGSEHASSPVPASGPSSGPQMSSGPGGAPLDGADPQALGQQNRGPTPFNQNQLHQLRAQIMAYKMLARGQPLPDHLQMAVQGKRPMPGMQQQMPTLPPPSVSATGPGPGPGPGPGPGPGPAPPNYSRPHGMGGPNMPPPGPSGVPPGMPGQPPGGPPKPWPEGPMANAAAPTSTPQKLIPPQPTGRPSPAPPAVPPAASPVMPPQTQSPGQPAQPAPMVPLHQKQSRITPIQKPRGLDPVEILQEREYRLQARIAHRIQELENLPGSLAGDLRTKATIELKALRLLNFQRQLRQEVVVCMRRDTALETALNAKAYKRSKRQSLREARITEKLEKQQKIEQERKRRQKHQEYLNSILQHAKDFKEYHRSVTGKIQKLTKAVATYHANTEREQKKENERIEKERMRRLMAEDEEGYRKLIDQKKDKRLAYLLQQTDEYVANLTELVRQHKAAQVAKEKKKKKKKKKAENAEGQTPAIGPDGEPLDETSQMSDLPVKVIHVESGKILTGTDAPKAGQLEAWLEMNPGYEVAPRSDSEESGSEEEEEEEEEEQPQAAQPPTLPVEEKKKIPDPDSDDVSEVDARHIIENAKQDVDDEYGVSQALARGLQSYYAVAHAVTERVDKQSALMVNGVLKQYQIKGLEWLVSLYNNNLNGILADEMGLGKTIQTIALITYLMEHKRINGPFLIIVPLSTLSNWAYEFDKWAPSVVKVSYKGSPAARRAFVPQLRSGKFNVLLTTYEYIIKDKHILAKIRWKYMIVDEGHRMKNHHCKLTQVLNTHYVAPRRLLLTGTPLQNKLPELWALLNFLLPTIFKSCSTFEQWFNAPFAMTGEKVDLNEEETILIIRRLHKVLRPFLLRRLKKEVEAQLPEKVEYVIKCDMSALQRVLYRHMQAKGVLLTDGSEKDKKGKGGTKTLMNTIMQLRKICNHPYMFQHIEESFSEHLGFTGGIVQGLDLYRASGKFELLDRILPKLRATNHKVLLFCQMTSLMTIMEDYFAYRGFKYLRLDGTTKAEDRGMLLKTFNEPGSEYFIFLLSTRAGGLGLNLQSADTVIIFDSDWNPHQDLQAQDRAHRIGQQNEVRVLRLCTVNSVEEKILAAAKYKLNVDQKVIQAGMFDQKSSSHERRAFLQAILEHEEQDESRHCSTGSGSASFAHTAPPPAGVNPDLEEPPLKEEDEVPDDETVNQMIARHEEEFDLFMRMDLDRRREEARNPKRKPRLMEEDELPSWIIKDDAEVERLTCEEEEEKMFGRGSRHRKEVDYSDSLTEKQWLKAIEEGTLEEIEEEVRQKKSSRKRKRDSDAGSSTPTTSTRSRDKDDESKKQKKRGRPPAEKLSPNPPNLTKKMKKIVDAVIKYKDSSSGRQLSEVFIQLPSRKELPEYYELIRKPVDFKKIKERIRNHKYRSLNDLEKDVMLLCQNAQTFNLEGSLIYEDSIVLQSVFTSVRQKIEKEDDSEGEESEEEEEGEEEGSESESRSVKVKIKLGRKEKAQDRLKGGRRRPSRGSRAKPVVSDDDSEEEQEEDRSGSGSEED
T1 sequence (P51531 whole entry, the tested form may be a part): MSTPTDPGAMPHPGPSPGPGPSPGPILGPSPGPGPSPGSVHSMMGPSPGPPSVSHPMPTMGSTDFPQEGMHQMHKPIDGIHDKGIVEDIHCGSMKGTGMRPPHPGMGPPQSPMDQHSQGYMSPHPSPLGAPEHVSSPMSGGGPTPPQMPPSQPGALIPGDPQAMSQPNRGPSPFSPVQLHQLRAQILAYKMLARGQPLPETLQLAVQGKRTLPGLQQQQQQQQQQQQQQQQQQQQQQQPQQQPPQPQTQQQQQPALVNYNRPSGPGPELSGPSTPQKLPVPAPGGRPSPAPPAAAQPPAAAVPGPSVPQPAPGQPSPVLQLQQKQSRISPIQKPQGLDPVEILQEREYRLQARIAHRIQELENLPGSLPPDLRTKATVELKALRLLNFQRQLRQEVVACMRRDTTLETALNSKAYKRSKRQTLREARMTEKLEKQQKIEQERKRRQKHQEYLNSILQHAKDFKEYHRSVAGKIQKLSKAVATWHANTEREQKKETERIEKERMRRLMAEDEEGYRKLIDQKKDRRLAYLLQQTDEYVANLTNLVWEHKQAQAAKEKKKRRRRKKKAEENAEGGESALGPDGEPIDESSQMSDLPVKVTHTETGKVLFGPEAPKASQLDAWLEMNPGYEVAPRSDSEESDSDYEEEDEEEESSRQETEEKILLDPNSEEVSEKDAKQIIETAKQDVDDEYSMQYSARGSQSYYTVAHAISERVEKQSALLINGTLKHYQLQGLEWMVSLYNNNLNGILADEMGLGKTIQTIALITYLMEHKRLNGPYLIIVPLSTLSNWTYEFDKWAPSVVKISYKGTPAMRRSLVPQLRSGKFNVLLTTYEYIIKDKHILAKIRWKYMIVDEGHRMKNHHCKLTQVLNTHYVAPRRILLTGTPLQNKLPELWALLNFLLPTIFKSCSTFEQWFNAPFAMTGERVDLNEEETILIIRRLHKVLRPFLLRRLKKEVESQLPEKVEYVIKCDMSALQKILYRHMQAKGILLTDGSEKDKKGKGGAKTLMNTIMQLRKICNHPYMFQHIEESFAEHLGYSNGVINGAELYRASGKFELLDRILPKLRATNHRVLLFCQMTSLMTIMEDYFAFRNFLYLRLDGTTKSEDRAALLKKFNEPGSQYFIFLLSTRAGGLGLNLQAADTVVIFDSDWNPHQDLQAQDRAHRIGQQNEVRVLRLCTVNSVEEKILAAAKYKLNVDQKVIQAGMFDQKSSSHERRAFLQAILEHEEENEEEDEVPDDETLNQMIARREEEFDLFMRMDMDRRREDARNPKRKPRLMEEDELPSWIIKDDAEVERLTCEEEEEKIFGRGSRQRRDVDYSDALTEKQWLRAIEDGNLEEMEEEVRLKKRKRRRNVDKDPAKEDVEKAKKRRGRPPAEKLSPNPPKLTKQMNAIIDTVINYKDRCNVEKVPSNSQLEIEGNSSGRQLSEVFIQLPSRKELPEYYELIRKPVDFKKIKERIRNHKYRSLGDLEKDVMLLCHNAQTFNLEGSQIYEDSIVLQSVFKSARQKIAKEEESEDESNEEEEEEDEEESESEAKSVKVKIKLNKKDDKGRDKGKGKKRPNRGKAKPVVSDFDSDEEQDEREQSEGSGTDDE

For the molecule `CN(CCNC(=O)C1(c2cc(-c3cccc(-c4csc(NC(=O)CNC(=O)c5ccn(S(C)(=O)=O)c5)n4)c3)ccn2)CC1)CCOCCOc1cccc2c1C(=O)N(C1CCC(=O)NC1=O)C2=O` (stereo not drawn) [Compound 112, N-(2-((4-(3-(2-(1-((2-((2-(2-((2-(2,6-dioxopiperidin-3-yl)-1,3-dioxoisoindolin-4-yl)oxy)ethoxy)ethyl)(methyl)amino)-ethyl)carbamoyl)cyclopropyl)-pyridin-4-yl)phenyl)thiazol-2-yl)amino)-2-oxoethyl)-1-(methylsulfonyl)-1H-pyrrole-3-carboxamide], in experiment [1], the DC50 was above 10 µM and the “BRM HiBit Degradation Maximum measured” value is given as “C (‘C’ = Maximum degradation <50%)”. Moreover, in experiment [2], the DC50 is above 10 µM and the Dmax was below 50%.
Regarding `CS(=O)(=O)n1ccc(C(=O)NCC(=O)Nc2nc(-c3cccc(-c4ccnc(C5(C(=O)NC6CCN(CCOc7ccc8c(c7)C(=O)N(C7CCC(=O)NC7=O)C8=O)CC6)CC5)c4)c3)cs2)c1` (stereo not drawn) [Compound 113], in experiment [1], the DC50 was below 0.1 µM and the “BRM HiBit Degradation Maximum measured” value is reported as “A (‘A’ = Maximum degradation >75%)”. Further, in experiment [2], the DC50 is below 0.1 µM and the Dmax was above 75%.
As for `Cc1c(C(=O)NCC(=O)Nc2nc(-c3cccc(-c4ccnc(N(C)CC(=O)N5CCC(C6CCN(C(=O)COc7cccc8c7C(=O)N(C7CCC(=O)NC7=O)C8=O)CC6)CC5)c4)c3)cs2)cn(S(=O)(=O)C(C)C)c1C` (stereo not drawn) [Compound 116, N-(2-((4-(3-(2-((2-(1′-(2-((2-(2,6-dioxopiperidin-3-yl)-1,3-dioxoisoindolin-4-yl)oxy)acetyl)-[4,4′-bipiperidin]-1-yl)-2-oxoethyl)(methyl)amino)pyridin-4-yl)phenyl)thiazol-2-yl)amino)-2-oxoethyl)-1-(isopropylsulfonyl)-4,5-dimethyl-1H-pyrrole-3-carboxamide], in experiment [1], the DC50 was above 10 µM and the “BRM HiBit Degradation Maximum measured” value is on record as “C (‘C’ = Maximum degradation <50%)”. In addition, in experiment [2], the DC50 was above 10 µM and the Dmax is below 50%.
`Cc1ncsc1-c1ccc(CNC(=O)[C@@H]2C[C@@H](O)CN2C(=O)[C@@H](NC(=O)CCCCCCCCCCCCC(=O)NCc2cccc(-c3cccc(-c4csc(NC(=O)CNC(=O)c5ccn(S(C)(=O)=O)c5)n4)c3)c2)C(C)(C)C)cc1` [Compound 118, N1-((S)-1-((2S,4R)-4-hydroxy-2-((4-(4-methylthiazol-5-yl)benzyl)carbamoyl)pyrrolidin-1-yl)-3,3-dimethyl-1-oxobutan-2-yl)-N14-((3′-(2-(2-(1-(methylsulfonyl)-1H-pyrrole-3-carboxamido)acetamido)thiazol-4-yl)-[1,1′-biphenyl]-3-yl)methyl)tetradecanediamide]: in experiment [1], the DC50 lay within 0.1 to 1 µM; the “BRM HiBit Degradation Maximum measured” value was “B (‘B’ = Maximum degradation ≥50% and ≤75%)”. Also, in experiment [2], the DC50 lay within 0.1 to 1 µM and the Dmax was in the range of 50 to 75%.
Take `Cc1ncsc1-c1ccc(CNC(=O)[C@@H]2C[C@@H](O)CN2C(=O)[C@@H](NC(=O)CCCCCCCCCCC(=O)NCc2cccc(-c3cccc(-c4csc(NC(=O)CNC(=O)c5ccn(S(C)(=O)=O)c5)n4)c3)c2)C(C)(C)C)cc1` [Compound 119, N1-((S)-1-((2S,4R)-4-hydroxy-2-((4-(4-methylthiazol-5-yl)benzyl)carbamoyl)pyrrolidin-1-yl)-3,3-dimethyl-1-oxobutan-2-yl)-N12-((3′-(2-(2-(1-(methylsulfonyl)-1H-pyrrole-3-carboxamido)acetamido)thiazol-4-yl)-[1,1′-biphenyl]-3-yl)methyl)dodecanediamide]: in experiment [1], the DC50 lay within 0.1 to 1 µM and the “BRM HiBit Degradation Maximum measured” value is “A (‘A’ = Maximum degradation >75%)”. In experiment [2], the DC50 was in the range of 0.1 to 1 µM and the Dmax was above 75%.
In the case of `Cc1ncsc1-c1ccc(CNC(=O)[C@@H]2C[C@@H](O)CN2C(=O)[C@@H](NC(=O)CCCCCCCCCCCCCCC(=O)NCc2cccc(-c3cccc(-c4csc(NC(=O)CNC(=O)c5ccn(S(C)(=O)=O)c5)n4)c3)c2)C(C)(C)C)cc1` [Compound 120, N1-((S)-1-((2S,4R)-4-hydroxy-2-((4-(4-methylthiazol-5-yl)benzyl)carbamoyl)pyrrolidin-1-yl)-3,3-dimethyl-1-oxobutan-2-yl)-N16-((3′-(2-(2-(1-(methylsulfonyl)-1H-pyrrole-3-carboxamido)acetamido)thiazol-4-yl)-[1,1′-biphenyl]-3-yl)methyl)hexadecanediamide], in experiment [1], the DC50 was above 10 µM and the “BRM HiBit Degradation Maximum measured” value is recorded as “C (‘C’ = Maximum degradation <50%)”. Besides, in experiment [2], the DC50 was above 10 µM and the Dmax is below 50%.
As for `Cc1ncsc1-c1ccc(CNC(=O)[C@@H]2C[C@@H](O)CN2C(=O)[C@@H](NC(=O)COCCOCCOCCOCC(=O)NCc2cccc(-c3cccc(-c4csc(NC(=O)CNC(=O)c5ccn(S(C)(=O)=O)c5)n4)c3)c2)C(C)(C)C)cc1` [Compound 121, N1-((S)-1-((2S,4R)-4-hydroxy-2-((4-(4-methylthiazol-5-yl)benzyl)carbamoyl)pyrrolidin-1-yl)-3,3-dimethyl-1-oxobutan-2-yl)-N14-((3′-(2-(2-(1-(methylsulfonyl)-1H-pyrrole-3-carboxamido)acetamido)thiazol-4-yl)-[1,1′-biphenyl]-3-yl)methyl)-3,6,9,12-tetraoxatetradecane-1,14-diamide], in experiment [1], the DC50 was 1 to 10 µM; the “BRM HiBit Degradation Maximum measured” value is “B (‘B’ = Maximum degradation ≥50% and ≤75%)”. For the same molecule, in experiment [2], the DC50 was in the range of 1 to 10 µM and the Dmax is 50 to 75%.
With `Cc1cc(C(=O)NCC(=O)Nc2nc(-c3cccc(-c4ccnc(N(C)CC(=O)NCCOCCOCCNc5cccc6c5C(=O)N(C5CCC(=O)NC5=O)C6=O)c4)c3)cs2)cn1S(C)(=O)=O` (stereo not drawn) [Compound 122, N-(2-((4-(3-(2-((2-((2-(2-(2-((2-(2,6-dioxopiperidin-3-yl)-1,3-dioxoisoindolin-4-yl)amino)ethoxy)ethoxy)ethyl)amino)-2-oxoethyl)(methyl)amino)pyridin-4-yl)phenyl)thiazol-2-yl)amino)-2-oxoethyl)-5-methyl-1-(methylsulfonyl)-1H-pyrrole-3-carboxamide], in experiment [1], the DC50 was above 10 µM and the “BRM HiBit Degradation Maximum measured” value is given as “C (‘C’ = Maximum degradation <50%)”. In experiment [2], the DC50 was above 10 µM and the Dmax was below 50%.
As to `Cc1c(C(=O)NCC(=O)Nc2nc(-c3cccc(-c4ccnc(N(C)CC(=O)N5CCC(C6CCN(C(=O)COc7cccc8c7C(=O)N(C7CCC(=O)NC7=O)C8=O)CC6)CC5)c4)c3)cs2)cn(S(C)(=O)=O)c1C` (stereo not drawn) [Compound 123, N-[2-[[4-[3-[2-[[2-[4-[1-[2-[2-(2,6-dioxo-3-piperidyl)-1,3-dioxo-isoindolin-4-yl]oxyacetyl]-4-piperidyl]-1-piperidyl]-2-oxo-ethyl]-methyl-amino]-4-pyridyl]phenyl]thiazol-2-yl]amino]-2-oxo-ethyl]-4,5-dimethyl-1-methylsulfonyl-pyrrole-3-carboxamide], in experiment [1], the DC50 was above 10 µM and the “BRM HiBit Degradation Maximum measured” value is listed as “C (‘C’ = Maximum degradation <50%)”. In experiment [2], the DC50 was above 10 µM and the Dmax was below 50%.
On to `Cc1ncsc1-c1ccc(CNC(=O)[C@@H]2C[C@@H](O)CN2C(=O)[C@@H](NC(=O)CCCCCCCCCCCCCCCC(=O)NCc2cccc(-c3cccc(-c4csc(NC(=O)CNC(=O)c5ccn(S(C)(=O)=O)c5)n4)c3)c2)C(C)(C)C)cc1` [Compound 124, N1-((S)-1-((2S,4R)-4-hydroxy-2-((4-(4-methylthiazol-5-yl)benzyl)carbamoyl)pyrrolidin-1-yl)-3,3-dimethyl-1-oxobutan-2-yl)-N17-((3′-(2-(2-(1-(methylsulfonyl)-1H-pyrrole-3-carboxamido)acetamido)thiazol-4-yl)-[1,1′-biphenyl]-3-yl)methyl)heptadecanediamide], for which, in experiment [1], the DC50 was above 10 µM and the “BRM HiBit Degradation Maximum measured” value was “C (‘C’ = Maximum degradation <50%)”. In experiment [2], the DC50 is above 10 µM and the Dmax was below 50%.
For the molecule `Cc1cc(C(=O)NCC(=O)Nc2nc(-c3cccc(-c4ccnc(N(C)CC(=O)NCCCCCNc5cccc6c5C(=O)N(C5CCC(=O)NC5=O)C6=O)c4)c3)cs2)cn1S(C)(=O)=O` (stereo not drawn) [Compound 125, N-(2-((4-(3-(2-((2-((5-((2-(2,6-dioxopiperidin-3-yl)-1,3-dioxoisoindolin-4-yl)amino)pentyl)amino)-2-oxoethyl)(methyl)amino)pyridin-4-yl)phenyl)thiazol-2-yl)amino)-2-oxoethyl)-5-methyl-1-(methylsulfonyl)-1H-pyrrole-3-carboxamide], in experiment [1], the DC50 is above 10 µM and the “BRM HiBit Degradation Maximum measured” value is “C (‘C’ = Maximum degradation <50%)”. Besides, in experiment [2], the DC50 was above 10 µM and the Dmax was below 50%.
As to `Cc1ncsc1-c1ccc(CNC(=O)[C@@H]2C[C@@H](O)CN2C(=O)[C@@H](NC(=O)CCCCCCCCCCCCCC(=O)NCc2cccc(-c3cccc(-c4csc(NC(=O)CNC(=O)c5ccn(S(C)(=O)=O)c5)n4)c3)c2)C(C)(C)C)cc1` [Compound 126, N′-[(1S)-1-[(2S,4R)-4-hydroxy-2-[[4-(4-methylthiazol-5-yl)phenyl]methylcarbamoyl]pyrrolidine-1-carbonyl]-2,2-dimethyl-propyl]-N-[[3-[3-[2-[[2-[(1-methylsulfonylpyrrole-3-carbonyl)amino]acetyl]amino]thiazol-4-yl]phenyl]phenyl]methyl]pentadecanediamide], in experiment [1], the DC50 was in the range of 0.1 to 1 µM; the “BRM HiBit Degradation Maximum measured” value is “B (‘B’ = Maximum degradation ≥50% and ≤75%)”. Moreover, in experiment [2], the DC50 was in the range of 0.1 to 1 µM and the Dmax is 50 to 75%.
